Results taken from patent US20060188501A1, “Diagnostic and therapeutic agents for rheumatoid arthritis” (Kyowa Hakko Kogyo Co., Ltd., priority 2000, published 2006).

Tested on: Synoviocytes derived from a rheumatoid arthritis patient
Experiment: Growth of synoviocytes measured by MTT assay
Format: cell-based, human
Conditions: genistein 1.5, 3, 6, 12.5 and 25 μg/ml, 7 days culture, FIG. 2
Procedure: That is, synoviocytes obtained from a rheumatoid arthritis patient by surgery were minced, followed by enzyme treatment in RPMI1640 medium containing collagenase (4 mg/ml) at 37° C. for 4 hours to loosen the cells. The obtained cells were cultured in a growth medium (RPMI1640 containing 10% fetal calf serum) in a humidified CO2 incubator (5% CO2), with replacement of the growth medium at intervals of 3 to 4 days. When the cells grew to be subconfluent, the cells were subcultured at the ratio of 1:2 to 1:4 (that is, the cells were collected, transferred into other culture flasks in 1/2 to 1/4 portions and cultured in a fresh growth medium). Subculturing was repeated for 7 to 15 passages and the resulting cells were used in the following experiments.
The growth of synoviocytes was measured by the assay using MTT [3,(4,5-dimethylthiazol-2-yl)2,5-diphenyl-tetrazolium bromide]
Synoviocytes derived from a rheumatoid arthritis patient which were prepared in the same manner as in Example 1 were seeded on a 96-well microplate in an amount of 5×10^3 cells/well and precultured in the growth medium at 37° C. overnight. […] Then, 100 μl of dimethyl sulfoxide was added to dissolve the fomazan complex and the absorbance at the wavelength of 590 nm was measured with 96-well multiscanner Immno-Mini (Japan Inter Med) as the degree of cell growth. […]

O=c1c(-c2ccc(O)cc2)coc2cc(O)cc(O)c12 [genistein]
growth of synoviocytes (absorbance at 590 nm, MTT): inhibited in a manner dependent on the genistein concentration
